Experiments:
Experiment in all cases: relative viability (nuclei count vs DMSO), 5 days (fraction); higher = more cells survive
Erlotinib + Luminespib = compound: C#Cc1cccc(Nc2ncnc3cc(OCCOC)c(OCCOC)cc23)c1 [Erlotinib] + CCNC(=O)c1noc(-c2cc(C(C)C)c(O)cc2O)c1-c1ccc(CN2CCOCC2)cc1 [Luminespib] (partner 0.01 µM)
In short: (§1)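 Nuclei were stained with Hoechst during a one-step fixation (final 0.05% Triton X-100, 1% formaldehyde, 1 ug/ml Hoechst) carried out 5 days after dosing, then counted on 4× images. The cells, lung cancer lines in 1536-well plates, had been dosed by pin tool the day after seeding with one drug alone or a fixed anchor-drug dose plus five library-drug doses (not always all listed) in √10 steps. Relative viability is the nuclei count in treated wells divided by that in vehicle wells, and each value is the median of duplicate plates.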

Erlotinib + Palbociclib = compound: C#Cc1cccc(Nc2ncnc3cc(OCCOC)c(OCCOC)cc23)c1 [Erlotinib] + CC(=O)c1c(C)c2cnc(Nc3ccc(N4CCNCC4)cn3)nc2n(C2CCCC2)c1=O [Palbociclib] (partner 0.5 µM)
In short: as §1

Erlotinib + Dasatinib = compound: C#Cc1cccc(Nc2ncnc3cc(OCCOC)c(OCCOC)cc23)c1 [Erlotinib] + Cc1nc(Nc2ncc(C(=O)Nc3c(C)cccc3Cl)s2)cc(N2CCN(CCO)CC2)n1 [Dasatinib] (partner 0.075 µM)
In short: as §1

Erlotinib + Crizotinib = compound: C#Cc1cccc(Nc2ncnc3cc(OCCOC)c(OCCOC)cc23)c1 [Erlotinib] + C[C@@H](Oc1cc(-c2cnn(C3CCNCC3)c2)cnc1N)c1c(Cl)ccc(F)c1Cl [Crizotinib] (partner 1 µM)
In short: as §1

AT9283 + Navitoclax = compound: O=C(Nc1c[nH]nc1-c1nc2ccc(CN3CCOCC3)cc2[nH]1)NC1CC1 [AT9283] + CC1(C)CCC(c2ccc(Cl)cc2)=C(CN2CCN(c3ccc(C(=O)NS(=O)(=O)c4ccc(N[C@H](CCN5CCOCC5)CSc5ccccc5)c(S(=O)(=O)C(F)(F)F)c4)cc3)CC2)C1 [Navitoclax] (partner 0.5 µM)
In short: as §1

Row | Cell Line | relative viability (Erlotinib + Luminespib; first compound 0.02 µM) | relative viability (Erlotinib + Luminespib; first compound 0.2 µM) | relative viability (Erlotinib + Luminespib; first compound 0.6325 µM) | relative viability (Erlotinib + Luminespib; first compound 2 µM) | relative viability (Erlotinib + Palbociclib; first compound 0.02 µM) | relative viability (Erlotinib + Palbociclib; first compound 0.2 µM) | relative viability (Erlotinib + Palbociclib; first compound 0.6325 µM) | relative viability (Erlotinib + Palbociclib; first compound 2 µM) | relative viability (Erlotinib + Dasatinib; first compound 0.02 µM) | relative viability (Erlotinib + Dasatinib; first compound 0.2 µM) | relative viability (Erlotinib + Dasatinib; first compound 0.6325 µM) | relative viability (Erlotinib + Dasatinib; first compound 2 µM) | relative viability (Erlotinib + Crizotinib; first compound 0.02 µM) | relative viability (Erlotinib + Crizotinib; first compound 0.2 µM) | relative viability (Erlotinib + Crizotinib; first compound 0.6325 µM) | relative viability (Erlotinib + Crizotinib; first compound 2 µM) | relative viability (AT9283 + Navitoclax; first compound 0.003 µM) | relative viability (AT9283 + Navitoclax; first compound 0.03 µM) | relative viability (AT9283 + Navitoclax; first compound 0.09487 µM) | relative viability (AT9283 + Navitoclax; first compound 0.3 µM)
1 | NCI-H1944 | 0.813 | 0.471 | 0.609 | 0.434 | 0.331 | 0.242 | 0.264 | 0.231 | 0.213 | 0.219 | 0.237 | 0.21 | 0.964 | 0.701 | 0.844 | 0.626 | 1.03 | 0.865 | 0.652 | 0.235
2 | NCI-H1355 | – | 0.597 | 0.658 | 0.557 | 0.387 | 0.344 | 0.325 | 0.269 | 0.701 | 0.571 | 0.666 | 0.472 | 1.1 | 0.999 | 0.944 | 0.789 | 1.07 | 0.806 | 0.46 | 0.158
3 | HCC-827 | 0.238 | 0.218 | 0.211 | 0.182 | 0.191 | 0.146 | 0.135 | 0.154 | 0.148 | 0.152 | 0.195 | 0.126 | 0.371 | 0.195 | 0.174 | 0.177 | 0.995 | 0.879 | 0.449 | 0.326
4 | RERF-LC-KJ | 1.32 | 0.993 | 1.23 | – | 1.02 | 1.01 | 0.93 | 0.759 | 0.89 | 0.658 | 0.662 | 0.583 | 0.85 | 0.837 | 0.781 | 0.645 | 0.834 | 0.554 | 0.223 | 0.217
5 | NCI-H2228 | 0.151 | 0.131 | 0.149 | 0.121 | 0.805 | 0.739 | – | 0.572 | 0.625 | 0.492 | 0.5 | 0.368 | 0.516 | 0.476 | 0.379 | 0.32 | 0.93 | 0.774 | 0.51 | 0.144
6 | LK-2 | 0.151 | 0.166 | 0.203 | 0.15 | 0.579 | 0.589 | 0.712 | 0.743 | 0.318 | 0.225 | 0.306 | 0.268 | 0.217 | 0.228 | 0.198 | 0.227 | 0.803 | 0.493 | 0.169 | 0.168
7 | NCI-H520 | 0.242 | 0.23 | 0.253 | 0.248 | 0.202 | 0.223 | 0.272 | 0.311 | 0.188 | 0.186 | 0.245 | 0.234 | 0.683 | 0.9 | 0.987 | 0.68 | 1.17 | 0.34 | 0.236 | 0.23
8 | HOP-62 | 0.988 | 0.949 | 0.855 | 0.881 | 0.544 | 0.517 | 0.453 | 0.41 | 0.695 | 0.583 | – | 0.567 | 0.885 | 0.989 | 0.965 | 0.972 | 1.07 | 0.857 | 0.088 | 0.106
9 | PC-14 | 0.154 | 0.134 | 0.147 | 0.0981 | 0.173 | 0.0873 | 0.0953 | 0.0635 | 0.0626 | 0.0332 | 0.0591 | 0.0181 | 0.651 | 0.278 | 0.23 | 0.224 | 1.12 | 1.01 | 0.37 | 0.078
10 | UMC-11 | 1.05 | 0.93 | 1.32 | 1.11 | 0.364 | 0.328 | 0.345 | 0.382 | 0.512 | 0.438 | 0.482 | 0.424 | 0.644 | 0.62 | 0.84 | 0.585 | 0.309 | 0.113 | 0.118 | 0.128
11 | NCI-H2405 | 0.6 | 0.655 | 0.598 | 0.755 | 0.534 | 0.521 | 0.535 | 0.54 | 0.214 | 0.224 | 0.201 | 0.195 | 0.957 | 0.838 | 0.958 | 0.717 | 1.05 | 0.31 | 0.127 | 0.0943
12 | HARA | 0.784 | 0.417 | 0.586 | 0.255 | 0.233 | 0.224 | 0.241 | 0.188 | 0.28 | 0.265 | 0.253 | 0.151 | 1.04 | 0.983 | 0.79 | 0.505 | 1.1 | 0.129 | 0.0715 | 0.101
13 | NCI-H1437 | 1.15 | 1.18 | 1.1 | 1.03 | 0.308 | 0.27 | 0.319 | 0.281 | 0.357 | 0.433 | 0.46 | 0.339 | 1.01 | 1.02 | 1.12 | 0.883 | 1.17 | 0.832 | 0.265 | 0.178
14 | COR-L23 | 0.686 | 0.637 | 0.693 | 0.588 | 0.292 | 0.287 | 0.383 | 0.29 | 0.552 | 0.554 | 0.457 | 0.452 | 0.718 | 0.681 | 0.666 | 0.614 | 0.964 | 0.301 | 0.123 | 0.126
15 | NCI-H1650 | 0.218 | 0.188 | 0.206 | 0.21 | 0.265 | 0.287 | 0.309 | 0.245 | 0.283 | 0.265 | 0.282 | 0.325 | 0.85 | 0.721 | 0.924 | 0.643 | 1.34 | 1 | 0.29 | 0.232
